Consider one compound from patent US20230165836A1, “ALPHA-2 ADRENERGIC RECEPTOR AGONISTS FOR THE TREATMENT OF CANCER” (UNIVERSITÉ CATHOLIQUE DE LOUVAIN, priority 2020, published 2023).

For one assay, the system named is B16F1 melanoma. The assay can be described thus: B16F1 melanoma in immune deficient mice. As to conditions: B16F1 in immune deficient NSG mice; 5 mg/kg, i.p. The assay is classed as in vivo. As for the experimental part:
FIGS. 10A-B is a set of curves showing the tumor growth of B16F1 melanoma in C57BL/6J (FIG. 10A) or immunodeficient NSG mice (FIG. 10B) treated with PBS (Control, curve 1) or clonidine (5 mg/kg, i.p., curve 2).
FIGS. 11A-B is a set of curves showing the tumor growth of B16F1 melanoma in C57BL/6J (FIG. 11A) or NSG mice (FIG. 11B) treated with PBS (Control, curve 1) or guanfacine (5 mg/kg, i.p., curve 2).

Another assay relates to JAK2V617F allele burden. The assay can be described thus: Myelofibrosis by JAK2V617F bone marrow transplantation, allele burden. It counts as in vivo, C57BL/6 mice. To be noted: 5 mg/kg i.p. daily; Day 7 versus Day 0. As for the experimental part: Bone marrow from primary CD45.2 JAK2V617F mice was mixed 1:1 with CD45.1 C57BL/6 marrow and transplanted into lethally irradiated CD45.2 C57BL/6 recipients. 1 month after bone marrow transplantation, mice were randomized into three groups and received daily i.p injection of 5 mg/kg of clonidine, guanabenz or PBS. Blood was taken on Day 0 (Just before the treatment) and on Day 7 (7 days after the treatment). The allele burden was assessed as a fraction of CD45.2 cells along total CD45 cells in the blood of mice.
Decreased JAK2V617F allele burden is a golden standard method to evaluate the disease progression of MF.

Assay [1] relates to JAK2V617F mutated bone marrow. The assay can be described thus: Myelofibrosis by JAK2V617F bone marrow transplantation, platelet counts. To be noted: 5 mg/kg daily for three weeks. It counts as in vivo, mice. As for the experimental part:
Murine femurs and tibias from JAK2V617F mutant mice were first harvested and cleaned thoroughly. Marrow cells were flushed into PBS with 2% fetal bovine serum using a 25G needle and syringe. Resulting cell suspensions were then filtered through a 40 uM cell strainer. Recipient mice were irradiated with two doses of 500 rad 4 h apart. 1 million of donor cells were injected into wild-type recipients by standard intravenous injection using a 27G insulin syringe. One week after bone marrow transplantation, mice were treated with guanabenz or clonidine at a dose of 5 mg/kg daily for three weeks. After three weeks of treatment, mice were dissected and peripheral blood was drawn by cardiac puncture, the platelet concentration was measured by Cell Counter Analyzer MS9-5V.

In a further assay the test system is TiRP melanoma. The assay can be described thus: TiRP melanoma model, monotherapy. The assay is classed as in vivo. To be noted: TiRP+/+ mice; 5 mg/kg, i.p. daily from tumor size around 250 mm^3. As for the experimental part:
FIGS. 14A-B is a set of curves showing the tumor growth (melanoma) in TiRP+/+ mice that have received daily injections of guanfacine (5 mg/kg, i.p. triangles; FIG. 14A), clonidine (5 mg/kg, i.p., circles; FIG. 14B), or control (PBS, i.p., squares), when the tumor size was around 250 mm^3 until sacrifice.
TiRP mice have been created by crossing Ink4a/Are^flox/flox mice with mice carrying a transgenic construct controlled by the tyrosinase promoter and driving the expression of H-Ras ^12V and Trapl a which encodes a MAGE-type tumor antigen P1A; the promoter is separated from the coding region by a stop cassette made of a floxed self-deleting CreER (Huijbers et al., 2006, Cancer Res 66, 3278-3286). Those mice were backcrossed to a B10.D2 background and bred to homozygosity. TCRP1A mice heterozygous for the H-2Ld/P1A35-43-specific TCR transgene were kept on the B10.D2;Rag1^−/− background (Shanker et al., 2004, J Immunol 172, 5069-5077). […]
A fresh solution of 40H-Tamoxifen was prepared by dissolving 40H-Tamoxifen (Imaginechem®) in 100% ethanol and mineral oil (ratio 1:9) followed by 30 min sonication, and injected subcutaneously (2 mg/200 uL per mouse) in the neck area of gender-matched 7 weeks old TiRP mice. Tumor appearance was monitored daily and tumors were measured three times/week. Tumor volume (in mm^3) was calculated by the following formula: Volume=width^2×length/2.

Assay [2] has as its system human LS411N ovarian cancer. The assay can be described thus: LS411N xenograft with adoptive transfer of allogeneic human PBMC. The assay is classed as in vivo. To be noted: human allogenic PBMC transferred at tumor size 100 mm^3. As for the experimental part:
Adoptive transfer of human PBMC was performed when tumor size reaches 100 mm^3.
Background: Xenograft models place foreign cells or tissue in a host animal.

Assay [3] has as its system MC38 colon carcinomas. The assay can be described thus: MC38 colon carcinoma in wildtype mice. It counts as in vivo, C57BL/6 Wildtype mice. To be noted: 5 mg/kg, i.p. daily from tumor size around 50 mm^3. The method, then: (§1) C57BL/6 Wildtype or C57BL/6 Adra2a KO mice bearing MC38 colon carcinomas received daily injections of vehicle control (PBS), clonidine (5 mg/kg, i.p.) or guanabenz (5 mg/kg, i.p.), when the tumor size was around 50 mm^3, until the day of sacrifice.

Assay [4] has as its system MC38 colon carcinomas. The assay can be described thus: MC38 colon carcinoma in Adra2a KO mice. It counts as in vivo, C57BL/6 Adra2a KO mice. To be noted: 5 mg/kg, i.p. daily from tumor size around 50 mm^3. The method, then: as §1
The subject of another assay is hepatocellular carcinoma. The assay can be described thus: Tumor model: hepatocellular carcinoma. The assay is classed as in vivo, mice. To be noted: hepatocellular carcinoma (FIG. 22B, 23B). From the text:
(§2) FIGS. 23A-H is a set of curves showing the tumor growth of mice treated with PBS (Control, circles) or guanabenz (GBZ, triangles) in different tumor models: such as mammary gland tumor (FIG. 23A), hepatocellular carcinoma (FIG. 23B), T cell lymphoma (FIG. 23C), lung cancer (FIG. 23D), myeloma (FIG. 23E), mammary adenocarcinoma (FIG. 23F), renal cancer (FIG. 23G) and fibrosarcoma (FIG. 23H).

Another assay has as its system T cell lymphoma. The assay can be described thus: Tumor model: T cell lymphoma. It counts as in vivo, mice. As to conditions: T cell lymphoma (FIG. 22C, 23C).
From the text: as §2

The test system of a further assay is mammary adenocarcinoma. The assay can be described thus: Tumor model: mammary adenocarcinoma. The assay is classed as in vivo, mice. To be noted: mammary adenocarcinoma (FIG. 22F, 23F).
From the text: as §2

In the next assay the test system is prostate cancer. The assay can be described thus: Xenograft model of prostate cancer in NSG mice treated with PBMC. The assay is classed as in vivo.

“Also recorded” adds a separate entry of the source.

With `Clc1cccc(Cl)c1N=C1NCCN1` [clonidine], the tumor growth entry in the assay with B16F1 melanoma is “No tumor inhibition was found”; in [2] it was “significant tumor inhibition”; with MC38 colon carcinomas [3] it was “significant tumor inhibition”; in the assay with hepatocellular carcinoma, “strong tumor inhibition”; in the assay with T cell lymphoma, “strong tumor inhibition”; in the assay with mammary adenocarcinoma it was “strong tumor inhibition”. In addition, in the assay with prostate cancer, the tumor growth entry is reported as “strong tumor inhibition”. Besides, in the assay on JAK2V617F allele burden, the “JAK2V617F allele burden (CD45.2 cells among total CD45 cells in blood)” value is given as “decrease of JAK2V617F allele burden in a number of mice”. In addition, in assay [1], the “platelet (PLT) counts” value was “significantly reduces the platelet (PLT) counts; also recorded: significantly reduced the high platelet counts”. Also, in the assay with TiRP melanoma, the “tumor volume, monotherapy” value is on record as “efficient in decreasing the tumor volume”. Further, the “tumor inhibition in Adra2a KO mice” value in the assay on MC38 colon carcinomas [4] is listed as “almost completely attenuated”.
